#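 GI50 marks 50% less growth. TGI denotes the concentration required for complete inhibition of growth.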
# Tests used:
# Assay in all cases: growth of human tumour cells (NCI), 384-well format
# [1] = test system: HOP-62 NSCLC
# [2] = test system: NCI/ADR-RES ovarian
# [3] = test system: NCI-H23 lung
# [4] = test system: CCRF-CEM leukemia
# [5] = test system: HT29 colon
# [6] = test system: HCT-116 colon
# [7] = test system: EKVX NSCLC
# [8] = test system: A549 NSCLC
# [9] = test system: RPMI-8226 leukemia
# [10] = test system: ACHN renal
# [11] = test system: SF-539 CNS
# [12] = test system: NCI-H322M lung
# [13] = test system: SN12C renal
# [14] = test system: NCI-H522 lung
# [15] = test system: KM12 colon
# [16] = test system: MDA-MB-231 breast
# [17] = test system: MDA-MB-435 melanoma
# [18] = test system: M14 melanoma
# [19] = test system: UACC-62 melanoma
# [20] = test system: NCI-H226 lung
# [21] = test system: BT-549 breast
# [22] = test system: IGROV1 ovarian
# [23] = test system: TK-10 renal
# [24] = test system: MALME-3M melanoma
# [25] = test system: OVCAR-4 ovarian
# [26] = test system: SNB-19 CNS
# [27] = test system: SNB-75 CNS
# [28] = test system: MCF7 breast
# [29] = test system: HS 578T breast
# [30] = test system: U251 glioblastoma
# [31] = test system: SW-620 colon
# [32] = test system: COLO 205 colon
# [33] = test system: SK-OV-3 ovarian
# [34] = test system: UO-31 renal
# [35] = test system: CAKI-1 renal
# [36] = test system: SF-268 CNS
# [37] = test system: LOX IMVI melanoma
# [38] = test system: MOLT-4 leukemia
# [39] = test system: SF-295 CNS
# [40] = test system: RXF 393 renal
# [41] = test system: HCC-2998 colon
# [42] = test system: 786-0 renal
# [43] = test system: SK-MEL-28 melanoma
# [44] = test system: HL-60(TB) leukemia
# [45] = test system: OVCAR-8 ovarian
# [46] = test system: T-47D breast
# [47] = test system: DU-145 prostate
# [48] = test system: OVCAR-3 ovarian
# [49] = test system: MDA-MB-468 breast
# [50] = test system: K-562 leukemia
# [51] = test system: A498 renal
# [52] = test system: PC-3 prostate
# [53] = test system: HOP-92 NSCLC
# [54] = test system: NCI-H460 NSCLC
# [55] = test system: HCT-15 colon
# [56] = test system: SK-MEL-2 melanoma
# [57] = test system: OVCAR-5 ovarian
# [58] = test system: UACC-257 melanoma
smiles,measurement,setting,value
FC(F)(F)c1ccc(Nc2nc(-c3c(C(F)(F)F)nc4ccccn34)cs2)cc1,GI50,[1],33.5 nM
same,TGI,[1],1.44 µM
same,GI50,[2],19.5 nM
same,TGI,[2],42.4 nM
same,GI50,[3],26.4 nM
same,TGI,[3],89.6 nM
same,GI50,[4],19.6 nM
same,TGI,[4],36.9 nM
same,GI50,[5],23.8 nM
same,TGI,[5],52.5 nM
same,GI50,[6],32.8 nM
same,TGI,[6],1440 nM
same,GI50,[7],43.2 nM
same,TGI,[7],2.39 µM
same,GI50,[8],61.9 nM
same,TGI,[8],3.74 µM
same,GI50,[9],18.3 nM
same,TGI,[9],36.8 nM
same,GI50,[10],88.9 nM
same,TGI,[10],3.19 µM
same,GI50,[11],35.7 nM
same,TGI,[11],0.179 µM
same,GI50,[12],50.4 nM
same,TGI,[12],2.56 µM
same,GI50,[13],38.6 nM
same,TGI,[13],2.4 µM
same,GI50,[14],16.7 nM
same,TGI,[14],36.6 nM
same,GI50,[15],24.4 nM
same,TGI,[15],1.08 µM
same,GI50,[16],52.4 nM
same,TGI,[16],4.69 µM
same,GI50,[17],12.8 nM
same,TGI,[17],33.2 nM
same,GI50,[18],25.2 nM
same,TGI,[18],0.0885 µM
same,GI50,[19],27.5 nM
same,TGI,[19],1590 nM
same,GI50,[20],30.2 nM
same,TGI,[20],0.0867 µM
same,GI50,[21],39.1 nM
same,TGI,[21],1.24 µM
same,GI50,[22],73.2 nM
same,TGI,[22],7.33 µM
same,GI50,[23],69.3 nM
same,TGI,[23],5.31 µM
same,GI50,[24],32 nM
same,TGI,[24],6.49 µM
same,GI50,[25],1000 nM
same,TGI,[25],4.46 µM
same,GI50,[26],47.1 nM
same,TGI,[26],1.96 µM
same,GI50,[27],22.1 nM
same,TGI,[27],78.7 nM
same,GI50,[28],30.3 nM
same,TGI,[28],1450 nM
same,GI50,[29],17.2 nM
same,TGI,[29],37.5 nM
same,GI50,[30],42.4 nM
same,TGI,[30],1490 nM
same,GI50,[31],33.9 nM
same,TGI,[31],2600 nM
same,GI50,[32],26.5 nM
same,TGI,[32],67.1 nM
same,GI50,[33],34.8 nM
same,TGI,[33],1660 nM
same,GI50,[34],42.2 nM
same,TGI,[34],3.42 µM
same,GI50,[35],26.4 nM
same,TGI,[35],1850 nM
same,GI50,[36],35.4 nM
same,TGI,[36],1430 nM
same,GI50,[37],48.4 nM
same,TGI,[37],2210 nM
same,GI50,[38],18.9 nM
same,TGI,[38],37.4 nM
same,GI50,[39],32.1 nM
same,TGI,[39],0.356 µM
same,GI50,[40],13.4 nM
same,TGI,[40],42.8 nM
same,GI50,[41],32.1 nM
same,TGI,[41],375 nM
same,GI50,[42],32.7 nM
same,TGI,[42],1.22 µM
same,GI50,[43],52.1 nM
same,TGI,[43],5.08 µM
same,GI50,[44],14.7 nM
same,TGI,[44],28.4 nM
same,GI50,[45],35.7 nM
same,TGI,[45],1150 nM
same,GI50,[46],28.9 nM
same,TGI,[46],3230 nM
same,GI50,[47],32.8 nM
same,TGI,[47],1370 nM
same,GI50,[48],16.6 nM
same,TGI,[48],39.1 nM
same,GI50,[49],161 nM
same,TGI,[49],310 nM
same,GI50,[50],27.6 nM
same,TGI,[50],89.8 nM
same,GI50,[51],32.7 nM
same,TGI,[51],1240 nM
same,GI50,[52],32.6 nM
same,TGI,[52],1820 nM
same,GI50,[53],41.1 nM
same,TGI,[53],2.97 µM
same,GI50,[54],30.2 nM
same,TGI,[54],83.3 nM
same,GI50,[55],32.4 nM
same,TGI,[55],1.32 µM
O=C(CCCCCCC(=O)Nc1ccccc1)NO,GI50,[1],1200 nM
same,TGI,[1],4.99 µM
same,GI50,[3],1370 nM
same,TGI,[3],3990 nM
same,GI50,[5],1370 nM
same,TGI,[5],3120 nM
same,GI50,[6],461 nM
same,TGI,[6],1730 nM
same,GI50,[7],3800 nM
same,TGI,[7],28.5 µM
same,GI50,[8],1410 nM
same,TGI,[8],4.16 µM
same,GI50,[10],1330 nM
same,TGI,[10],3.59 µM
same,GI50,[11],2040 nM
same,TGI,[11],12.3 µM
same,GI50,[12],1510 nM
same,TGI,[12],5.81 µM
same,GI50,[13],1810 nM
same,TGI,[13],4.22 µM
same,GI50,[14],431 nM
same,TGI,[14],1780 nM
same,GI50,[15],329 nM
same,TGI,[15],10.7 µM
same,GI50,[16],1090 nM
same,TGI,[16],2.91 µM
same,GI50,[17],1540 nM
same,TGI,[17],3390 nM
same,GI50,[18],1490 nM
same,TGI,[18],7.78 µM
same,GI50,[56],369 nM
same,TGI,[56],982 nM
same,GI50,[19],467 nM
same,TGI,[19],1570 nM
same,GI50,[20],3930 nM
same,TGI,[20],16.8 µM
same,GI50,[21],2490 nM
same,TGI,[21],7.02 µM
same,GI50,[22],886 nM
same,TGI,[22],2.35 µM
same,GI50,[23],1270 nM
same,TGI,[23],4.85 µM
same,GI50,[24],400 nM
same,TGI,[24],1.46 µM
same,GI50,[25],3150 nM
same,TGI,[25],8.55 µM
same,GI50,[26],1990 nM
same,TGI,[26],5.21 µM
same,GI50,[57],853 nM
same,TGI,[57],3.05 µM
same,GI50,[27],399 nM
same,TGI,[27],2630 nM
same,GI50,[28],1020 nM
same,TGI,[28],2490 nM
same,GI50,[29],736 nM
same,TGI,[29],2230 nM
same,GI50,[30],1300 nM
same,TGI,[30],2860 nM
same,GI50,[31],948 nM
same,TGI,[31],2270 nM
same,GI50,[32],1480 nM
same,TGI,[32],2930 nM
same,GI50,[33],1680 nM
same,TGI,[33],4150 nM
same,GI50,[34],2150 nM
same,TGI,[34],9.08 µM
same,GI50,[35],704 nM
same,TGI,[35],2120 nM
same,GI50,[36],1250 nM
same,TGI,[36],2810 nM
same,GI50,[37],1450 nM
same,TGI,[37],2790 nM
same,GI50,[38],190 nM
same,TGI,[38],444 nM
same,GI50,[39],1810 nM
same,TGI,[39],6.07 µM
same,GI50,[40],471 nM
same,TGI,[40],1410 nM
same,GI50,[41],1650 nM
same,TGI,[41],3980 nM
same,GI50,[42],2190 nM
same,TGI,[42],10.4 µM
same,GI50,[43],988 nM
same,TGI,[43],2.52 µM
same,GI50,[44],348 nM
same,TGI,[44],733 nM
same,GI50,[45],486 nM
same,TGI,[45],2400 nM
same,GI50,[46],667 nM
same,TGI,[46],2350 nM
same,GI50,[47],729 nM
same,TGI,[47],2320 nM
same,GI50,[48],1570 nM
same,TGI,[48],4240 nM
same,GI50,[49],365 nM
same,TGI,[49],1090 nM
same,GI50,[50],408 nM
same,TGI,[50],1490 nM
same,GI50,[51],1520 nM
same,TGI,[51],3420 nM
same,GI50,[58],626 nM
same,TGI,[58],2450 nM
same,GI50,[52],1480 nM
same,TGI,[52],3930 nM
same,GI50,[53],1610 nM
same,TGI,[53],3.98 µM
same,GI50,[54],876 nM
same,TGI,[54],4810 nM
same,GI50,[55],2530 nM
same,TGI,[55],10.3 µM

# From PubChem BioAssay (NCI)
